Tests used:
[1] = refractive index (Na D-line) (dimensionless); xn = mol fraction of the nth substance listed; settings: 100 kPa, Liquid, Standard Abbe refractometry, x1 = 0.25
[2] = xn = mol fraction of the nth substance listed; settings: 100 kPa, Liquid, x1 = 0.25; for electrical conductivity: Alternating current cell with electrodes; for viscosity: Falling or rolling sphere viscometry; for speed of sound: Single path-length method; for mass density: Vibrating tube method

CCCC[N+](CCCC)(CCCC)Cc1ccccc1.[Cl-] [benzyltributylammonium chloride] + OCCOCCOCCO
Settings | electrical conductivity, [2] [S/m] | mass density, [2] [kg/m3] | refractive index, [1] | speed of sound, [2] [m/s] | viscosity, [2] [mPa·s]
283.15 K | 0.013 | 1077.97 | 1.4936 | 1710.1 | 738.7
288.15 K | 0.017 | 1074.64 | 1.4921 | 1692.4 | 506
293.15 K | 0.021 | 1071.36 | 1.4906 | 1675.8 | 356.9
298.15 K | 0.027 | 1068.09 | 1.4889 | 1659.8 | 256.5
303.15 K | 0.035 | 1064.81 | 1.4874 | 1644.2 | 188.5
308.15 K | 0.043 | 1061.53 | 1.4857 | 1629.2 | 142.4
313.15 K | 0.054 | 1058.25 | 1.4842 | 1614.3 | 109.1
318.15 K | 0.067 | 1054.97 | 1.4827 | 1599.8 | 85.2
323.15 K | 0.082 | 1051.7 | 1.4811 | 1585.4 | 67.7
328.15 K | 0.098 | 1048.43 | 1.4795 | 1571.2 | 54.4
333.15 K | 0.114 | 1045.18 | 1.4779 | 1557.1 | 43.3
338.15 K | 0.145 | 1041.92 | 1.4764 | 1543.3 | 34.9
343.15 K | 0.174 | 1038.69 | 1.4748 | 1530 | 28.3
